Assay results published in patent US20200392158A1, “INHIBITORS OF LEUCINE RICH REPEAT KINASE 2” (GLAXOSMITHKLINE INTELLECTUAL PROPERTY DEVELOPMENT LIMITED, priority 2017, published 2020).

Target: T1, full length G2019 human LRRK2 (Homo sapiens, UniProt Q5S007, R50H)
T1 construct: made in house; host or cells: HEK293 6E cells transduced with BacMam virus (virus generated in Sf9 cells)
Experiment: Full length G2019 human LRRK2 inhibition mass spectrometry assay
Type: biochemical
Details: LRRKtide to phospho-LRRKtide conversion, RapidFire MS, 2 mM ATP
Method: a. Full Length G2019 Human LRRK2 Inhibition Mass Spectrometry Assay
This assay for Leucine Rich Repeat Kinase 2 (LRRK2) inhibition is based on the direct measurement of the peptide ‘LRRKtide’ (LRRKtide: RLGRDKYKT*LRQIRQ and “*” refers to the site of phosphorylation.) and phosphorylated ‘LRRKtide’ using a high throughput Rapid Fire mass spectrometry assay. Inhibitors are compounds that reduce the conversion of LRRKtide to phospho-LRRKtide.
• 1) Compounds were dissolved in 100% DMSO at a concentration of 10 mM, and 11-point dose response curves generated using a 1 in 4 serial dilution in DMSO. 100 nL of this dilution series was then added to a 384 well, v bottom polypropylene plate (Greiner 781280), excluding columns 6 and 18. 100 nL of DMSO were added to column 6 to serve as the high control, while column 18 served as the low control containing assay buffer in place of the LRRK2 protein. Assay dilution gave a top final assay concentration of test compound of […] • 2) 5 μL of ‘enzyme solution’ containing 2× final assay concentration of purified recombinant Full length Flag-LRRK2 in assay buffer (50 mM Hepes, pH 7.2, 10 mM MgCl2, 150 mM NaCl, 5% glycerol, 0.0025% Triton X-100 and 1 mM DTT) were added to all wells using a Multidrop Combi dispenser (ThermoFisher Scientifiec), giving a final assay concentration of 25 nM LRRK2 enzyme (final concentration may vary depending on specific activity of different enzyme batches). • 3) 5 μL of substrate solution containing 50 μM LRRKtide peptide substrate and […] was added to all wells of the plate using a Multidrop Combi dispenser giving a final assay concentration of 25 μM LRRKtide peptide and 2 mM ATP. Test plates were then incubated for 1 hour at room temperature. (Incubation may vary depending on rate and linearity of reaction with different enzyme batches). • 4) 50 μl of 1% formic acid in laboratory grade water was added to all wells to quench the reaction, and plates were heat-sealed prior to centrifugation at 1348×g for 10 minutes. Test plates were then analysed on an Agilent RapidFire High Throughput solid phase extraction system coupled to AB Sciex API 4000 triple quadropole mass spectrometer with the following setting:
• Sip Height=2 mm, Aspirate=500 ms, Load time=3000 ms, Elution time=3000 ms, Requilibration=500 ms. • Flow rates: pump 1=1.5 mL/min, pump 2 1.25 mL/min pump 3=0.8 mL/min
Mass Spectrometer Settings: • LRRKtide Detection settings: Q1 mass 644.8 Da, Q3 mass 638.8, declustering potential 76 volts, collision energy 37 volts, CXP 34 volts. • Phospho-LRRKtide Detection settings: Q1 mass 671.4 Da, Q3 mass 638.8, Declustering potential 76 volts, Collision energy 37 volts, CXP 34 volts. • A C4 cartridge was used and running buffers were: A (aqueous) 0.1% formic acid in water B (organic) 0.1% formic acid, 80% acetonitrile, 20% water. • Collision gas: 12, Curtain gas: 25, Ion Source gas (1): 60, Ion Source gas (2): 60, Ion Spray Voltage: 5500, Temperature: 600, Interface Heater: ON. • Resolution Q1: low, Resolution Q3: low. • 5) Data were analysed using ActivityBase software (IDBS). A percent conversion from LRRKtide to Phospho-LRRKtide was calculated using the following formula:
% conversion=(Phospho-LRRKtide product peak area/(Phospho-LRRKtide product peak area+LRRKtide substrate peak area))*100 • A logistic 4 parameter curve fit was applied, using the following formula,
[formula] • Where x is the concentration of test sample, y is inhibition (%), a is the minimum, b is the Hill slope, c is the IC50 and d is the maximum. From this, the pIC50 was derived (−log IC50).

T1 sequence (Q5S007 with tags, fused parts or gaps R50H): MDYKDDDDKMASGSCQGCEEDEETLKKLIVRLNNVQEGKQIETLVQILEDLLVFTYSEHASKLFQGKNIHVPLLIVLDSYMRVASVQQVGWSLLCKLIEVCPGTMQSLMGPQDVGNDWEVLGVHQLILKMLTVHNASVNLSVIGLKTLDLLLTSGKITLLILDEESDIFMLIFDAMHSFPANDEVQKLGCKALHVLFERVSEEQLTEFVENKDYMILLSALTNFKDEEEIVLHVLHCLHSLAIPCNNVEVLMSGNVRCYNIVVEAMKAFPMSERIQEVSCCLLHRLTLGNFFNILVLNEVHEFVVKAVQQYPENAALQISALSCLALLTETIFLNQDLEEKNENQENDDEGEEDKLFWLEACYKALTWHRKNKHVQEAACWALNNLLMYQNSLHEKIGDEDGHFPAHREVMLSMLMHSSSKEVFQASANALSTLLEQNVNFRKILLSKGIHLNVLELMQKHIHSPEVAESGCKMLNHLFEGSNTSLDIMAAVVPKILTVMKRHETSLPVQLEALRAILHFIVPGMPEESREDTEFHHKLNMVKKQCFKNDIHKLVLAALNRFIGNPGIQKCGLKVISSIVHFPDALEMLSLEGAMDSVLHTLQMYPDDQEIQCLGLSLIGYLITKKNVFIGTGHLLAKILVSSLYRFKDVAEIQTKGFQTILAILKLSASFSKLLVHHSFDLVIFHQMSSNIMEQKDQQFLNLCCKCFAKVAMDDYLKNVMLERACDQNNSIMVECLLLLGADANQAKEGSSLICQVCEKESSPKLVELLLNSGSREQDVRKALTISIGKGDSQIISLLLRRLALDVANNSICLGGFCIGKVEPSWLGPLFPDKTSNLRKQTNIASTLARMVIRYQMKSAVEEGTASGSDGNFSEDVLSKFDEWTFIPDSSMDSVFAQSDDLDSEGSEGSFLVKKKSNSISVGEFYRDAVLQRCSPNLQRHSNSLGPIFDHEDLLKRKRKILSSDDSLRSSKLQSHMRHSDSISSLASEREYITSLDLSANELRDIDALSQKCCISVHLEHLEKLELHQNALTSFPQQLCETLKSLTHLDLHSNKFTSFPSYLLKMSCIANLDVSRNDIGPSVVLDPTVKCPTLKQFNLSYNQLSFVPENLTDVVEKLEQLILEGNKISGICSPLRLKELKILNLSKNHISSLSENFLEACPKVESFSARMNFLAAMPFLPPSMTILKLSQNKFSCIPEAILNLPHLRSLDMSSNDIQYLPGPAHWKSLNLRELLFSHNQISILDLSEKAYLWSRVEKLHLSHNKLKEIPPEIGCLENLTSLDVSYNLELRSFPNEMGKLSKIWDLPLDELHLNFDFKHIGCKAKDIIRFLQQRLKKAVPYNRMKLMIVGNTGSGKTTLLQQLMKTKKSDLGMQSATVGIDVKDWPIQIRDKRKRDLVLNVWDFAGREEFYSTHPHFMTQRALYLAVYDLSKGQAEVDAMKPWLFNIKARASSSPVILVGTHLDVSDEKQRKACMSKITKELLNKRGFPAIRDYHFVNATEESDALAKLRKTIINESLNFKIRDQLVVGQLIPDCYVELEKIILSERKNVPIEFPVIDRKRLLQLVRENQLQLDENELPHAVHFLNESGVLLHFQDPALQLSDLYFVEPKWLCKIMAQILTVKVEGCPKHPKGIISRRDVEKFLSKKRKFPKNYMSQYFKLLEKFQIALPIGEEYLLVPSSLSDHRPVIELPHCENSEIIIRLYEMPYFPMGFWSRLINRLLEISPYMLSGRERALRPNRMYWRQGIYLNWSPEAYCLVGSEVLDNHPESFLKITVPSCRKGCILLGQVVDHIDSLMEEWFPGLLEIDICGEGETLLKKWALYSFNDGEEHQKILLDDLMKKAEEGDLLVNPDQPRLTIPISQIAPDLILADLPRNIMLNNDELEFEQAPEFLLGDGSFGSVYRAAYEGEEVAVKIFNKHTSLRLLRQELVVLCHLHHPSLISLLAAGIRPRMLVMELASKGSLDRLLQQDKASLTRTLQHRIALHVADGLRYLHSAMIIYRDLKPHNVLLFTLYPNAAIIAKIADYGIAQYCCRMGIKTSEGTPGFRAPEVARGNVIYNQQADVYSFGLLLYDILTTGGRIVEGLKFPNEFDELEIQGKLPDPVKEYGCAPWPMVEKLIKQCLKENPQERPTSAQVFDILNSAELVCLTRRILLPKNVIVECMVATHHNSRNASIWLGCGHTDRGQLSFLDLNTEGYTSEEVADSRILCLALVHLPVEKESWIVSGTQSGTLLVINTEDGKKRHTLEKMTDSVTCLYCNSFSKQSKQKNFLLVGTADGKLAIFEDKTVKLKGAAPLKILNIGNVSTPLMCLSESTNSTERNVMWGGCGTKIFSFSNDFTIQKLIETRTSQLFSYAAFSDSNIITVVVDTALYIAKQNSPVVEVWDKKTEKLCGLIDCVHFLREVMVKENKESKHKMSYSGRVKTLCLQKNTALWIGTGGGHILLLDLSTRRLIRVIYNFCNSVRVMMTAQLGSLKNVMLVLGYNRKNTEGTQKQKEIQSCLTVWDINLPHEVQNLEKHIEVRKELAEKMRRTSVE

**Q.** How did the IC50 turn out when `Cc1c2c(nn1C1CCCOC1)OCCCNc1nc(ncc1Cl)N2` (single isomer, unassigned) [E11, 14-Chloro-4-methyl-5-(oxan-3-yl)-8-oxa-2,5,6,12,16,17-hexaaza tricyclo-[11.3.1.0^3,7]heptadeca-1(16),3,6,13(17),14-pentaene] was run?
**A.** ≤ 0.1 µM

**Q.** For `Cc1c2c(nn1C1CCOCC1)OCC(C)C(C)Nc1nc(ncc1Cl)N2` (single isomer, unassigned) [E33, 14-chloro-4,10,11-trimethyl-5-(oxan-4-yl)-8-oxa-2,5,6,12,16,17-hexaazatricyclo [11.3.1.0^3,7]heptadeca-1(16),3,6,13(17),14-pentaene], which IC50 is on record?
**A.** ≤ 10 µM

**Q.** `COC(C)c1c2c(nn1C1CCOCC1)OCC[C@@H](C)Nc1nc(ncc1Cl)N2` (stereo partly drawn) [E409, (11R)-14-Chloro-4-(1-methoxyethyl)-11-methyl-5-(oxan-4-yl)-8-oxa-2,5,6,12,16,17-hexaazatricyclo[11.3.1.0^3,7]heptadeca-1(17),3,6,13,15-pentaene] was tested. Which IC50 did it give?
**A.** ≤ 10 µM

**Q.** `Cc1c2c(nn1C1CCC(N3C[C@@H]4C[C@H]3CO4)CC1)OCCC(C)Nc1nc(ncc1Cl)N2` (single isomer, unassigned) [E105] was tested. Which IC50 did it give?
**A.** ≤ 0.1 µM

**Q.** With `CCOC1CNc2nc(ncc2Cl)Nc2c(nn(C3CCOCC3)c2C)OC1` (single isomer, unassigned) [E286, 14-Chloro-10-ethoxy-4-methyl-5-(oxan-4-yl)-8-oxa-2,5,6,12,16,17-hexaazatricyclo[11.3.1.0^3,7]heptadeca-1(16),3,6,13(17),14-pentaene] as the molecule, how does the IC50 read?
**A.** ≤ 10 µM

**Q.** Which IC50 does the source give for `CCC1CCOc2nn(C3COC3)c(C)c2Nc2ncc(Cl)c(n2)N1` (single isomer, unassigned) [E319, 14-Chloro-11-ethyl-4-methyl-5-(oxetan-3-yl)-8-oxa-2,5,6,12,16,17-hexaazatricyclo[11.3.1.0^3,7]heptadeca-1(16), 3,6,13(17),14-pentaene] here?
**A.** ≤ 10 µM

**Q.** Which IC50 does the source give for `COCC1CCOc2nn(C3CCOCC3F)c(C)c2Nc2ncc(Cl)c(n2)N1` (single isomer, unassigned) [E358, 14-Chloro-5-(3-fluorooxan-4-yl)-11-(methoxymethyl)-4-methyl-8-oxa-2,5,6,12,16,17-hexaazatricyclo [11.3. 1.0^3,7]heptadeca-1(16),3,6,13(17),14-pentaene] here?
**A.** ≤ 0.1 µM

**Q.** How did the IC50 turn out when `Cc1c2c(nn1C1CCOCC1)OCCC(C(F)(F)F)Nc1nc(ncc1Cl)N2` (single isomer, unassigned) [E193, 14-Chloro-4-methyl-5-(oxan-4-yl)-11-(trifluoromethyl)-8-oxa-2,5,6,12,16,17-hexaazatricyclo[11.3.1.0^3,7] heptadeca-1(16),3,6,13(17),14-pentaene] was run?
**A.** ≤ 10 µM

**Q.** How did the IC50 turn out when `Cc1c2c(nn1C1CCOCC1)OCC(F)C(C)Nc1nc(ncc1Cl)N2` (single isomer, unassigned) [E63, 14-Chloro-10-fluoro-4,11-dimethyl-5-(oxan-4-yl)-8-oxa-2,5,6,12, 16,17-hexaazatricyclo[11.3.1.0^3,7]heptadeca-1(16),3,6,13(17),14-pentaene] was run?
**A.** ≤ 10 µM

**Q.** How did the IC50 turn out when `COCC1CCOc2nn(C3CCOCC3F)c(C)c2Nc2ncc(Cl)c(n2)N1` (single isomer, unassigned) [E353, 14-Chloro-5-(3-fluorooxan-4-yl)-11-(methoxymethyl)-4-methyl-8-oxa-2,5,6,12,16,17-hexaazatricyclo [11.3. 1.0^3,7]heptadeca-1(16),3,6,13(17),14-pentaene] was run?
**A.** ≤ 0.1 µM

**Q.** `Cc1c2c(nn1C1CCOCC1)OCCC(C(F)F)Nc1nc(ncc1Cl)N2` (single isomer, unassigned) [E89, 14-chloro-11-(difluoromethyl)-4-methyl-5-(oxan-4-yl)-8-oxa-2,5,6, 12,16,17-hexaazatricyclo[11.3.1.0^3,7]heptadeca-1(16),3,6,13(17),14-pentaene] was tested. Which IC50 did it give?
**A.** ≤ 10 µM

**Q.** For `Cc1c2c(nn1C1CCCN(C3COC3)C1)OCC[C@@H](C)Nc1nc(ncc1Cl)N2` (single isomer, unassigned) [E68], which IC50 is on record?
**A.** ≤ 0.1 µM

**Q.** Which IC50 does the source give for `N#Cc1cnc2nc1NCCCOc1n[nH]c(Cl)c1N2` [E426, 4-Chloro-8-oxa-2,5,6,12,16,17-hexaazatricyclo[11.3.1.0^3,7]heptadeca-1(16),3,6,13(17),14-pentaene-14-carbonitrile] here?
**A.** ≤ 10 µM

**Q.** Which IC50 does the source give for `Cc1c2c(nn1C1CCOC(C)C1)OCCCNc1nc(ncc1Cl)N2` (single isomer, unassigned) [E203, 14-Chloro-4-methyl-5-(2-methyloxan-4-yl)-8-oxa-2,5,6,12,16,17-hexaazatricyclo[11.3.1.0^3,7]heptadeca-1(16),3,6,13(17),14-pentaene] here?
**A.** ≤ 0.1 µM

**Q.** `Cc1c2c(nn1C1CCC(N3C[C@H]4C[C@@H]3CO4)CC1)OCCC(C)Nc1nc(ncc1Cl)N2` (single isomer, unassigned) [E56] was tested. Which IC50 did it give?
**A.** ≤ 10 µM

**Q.** For `Cc1c2c(nn1C1CCOCC1)OCCC(C1CC1)Nc1nc(ncc1Cl)N2` (single isomer, unassigned) [E292, 14-Chloro-11-cyclopropyl-4-methyl-5-(oxan-4-yl)-8-oxa-2,5,6,12,16,17-hexaazatricyclo[11.3.1.0^3,7]heptadeca-1(16),3,6,13(17),14-pentaene], which IC50 is on record?
**A.** ≤ 10 µM

**Q.** For `Cc1c2c(nn1C(C)C1CCOCC1)OCCC(C)Nc1nc(ncc1Cl)N2` (single isomer, unassigned) [E184, 14-Chloro-4,11-dimethyl-5-[1-(oxan-4-yl)ethyl]-8-oxa-2,5,6,12,16,17-hexaazatricyclo[11.3.1.0^3,7]heptadeca-1(16),3,6,13(17),14-pentaene], which IC50 is on record?
**A.** ≤ 0.1 µM

**Q.** `Cc1c2c(nn1C1CCC(C)CC1)OCCC(C)Nc1nc(ncc1Cl)N2` (single isomer, unassigned) [E262, 14-Chloro-4,11-dimethyl-5-(4-methylcyclohexyl)-8-oxa-2,5,6,12,16,17-hexaazatricyclo[11.3.1.0^3,7] heptadeca-1(16),3,6,13(17),14-pentaene] was tested. Which IC50 did it give?
**A.** ≤ 10 µM

**Q.** Which IC50 does the source give for `CCC1CCOc2nn(C3CCOCC3)c(C)c2Nc2ncc(Cl)c(n2)N1` (single isomer, unassigned) [E19, 14-chloro-11-ethyl-4-methyl-5-(oxan-4-yl)-8-oxa-2,5,6,12,16,17-hexaazatricyclo[11.3.1.0^3,7]heptadeca-1(16),3,6,13(17),14-pentaene] here?
**A.** ≤ 10 µM

**Q.** For `Cc1c2c(nn1C(C)C1CCOCC1)OCCC(C)Nc1nc(ncc1Cl)N2` (single isomer, unassigned) [E182, 14-Chloro-4,11-dimethyl-5-[1-(oxan-4-yl)ethyl]-8-oxa-2,5,6,12,16,17-hexaazatricyclo[11.3.1.0^3,7]heptadeca-1(16),3,6,13(17),14-pentaene], which IC50 is on record?
**A.** ≤ 10 µM

**Q.** For `COCCN1CCC(n2nc3c(c2C)Nc2ncc(Cl)c(n2)NCCCO3)C(F)C1` (single isomer, unassigned) [E60, trans-14-chloro-5-[3-fluoro-1-(2-methoxyethyl)piperidin-4-yl]-4-methyl-8-oxa-2,5,6,12,16,17-hexaazatricyclo[11.3.1.0^3,7]heptadeca 1(16),3,6,13(17),14-pentaene], which IC50 is on record?
**A.** ≤ 0.1 µM

**Q.** `Cc1c2c(nn1C1CCC(N3C[C@@H]4C[C@H]3CO4)CC1)OCCCNc1nc(ncc1Cl)N2` (single isomer, unassigned) [E51] was tested. Which IC50 did it give?
**A.** ≤ 0.1 µM

**Q.** For `Cc1c2c(nn1C1CCC(N3CCC(F)C3)CC1)OCCCNc1nc(ncc1Cl)N2` (single isomer, unassigned) [E154, 14-Chloro-5-[4-(3-fluoropyrrolidin-1-yl)cyclohexyl]-4-methyl-8-oxa-2,5,6,12,16,17-hexaazatricyclo[11.3.1. 0^3,7]heptadeca-1(16),3,6,13(17),14-pentaene], which IC50 is on record?
**A.** ≤ 0.1 µM
